Experimental data published in patent EP2209789B1, “C[…] INDOLOB[…] NS5B INHIBITORS” (Bristol-Myers Squibb Company, priority 2007, dated 2009).
pEC50, pIC50: −log10 of the molar value.

Columns and labels:
HCV replicon = HCV replicon FRET / luciferase assay; assay type: cell-based
Experimental: FRET Assay Preparation. The HCV FRET screening assay was performed in 96-well cell culture plates. The FRET peptide (Anaspec, Inc.) (Taliani et al., Anal. Biochem. 1996, 240, 60-67) contains a fluorescence donor, EDANS, near one end of the peptide and an acceptor, DABCYL, near the other end. The fluorescence of the peptide is quenched by […] resonance energy transfer (RET) between the donor and the acceptor, but as the NS3 protease cleaves the peptide the products are released from RET quenching and the fluorescence of the donor becomes apparent. The assay reagent was made as follows: 5X cell Luciferase cell culture lysis reagent from Promega (#E153A) diluted to 1X with dH2O, NaCl added to 150 mM final, the FRET peptide diluted to 20 µM final from a 2 mM stock.
To prepare plates, HCV replicon cells, with or without a Renilla luciferase reporter gene, were trypsinized and plated in a 96-well plate with titrated test compounds added in columns 3 through 12; columns 1 and 2 contained a control compound (HCV control inhibitor), and the bottom row contained cells with DMSO only. The plates were then placed in a CO2 incubator at 37 °C.
Assays. Subsequent to addition of the test compounds described above (FRET Assay Preparation), at various times the plate was removed and Alamar blue solution (Trek Diagnostics, #00-100) was added to measure cellular toxicity. After reading in a Cytoflour 4000 instrument (PE Biosystems), plates were rinsed with PBS and then used for FRET assay by the addition of 30 ul of the FRET peptide assay reagent described above (FRET Assay Preparation) per well. The plate was then placed into the Cytoflour 4000 instrument which had been set to 340 excite/490 emission, automatic mode for up to 20 cycles and the plate read in a kinetic mode. Typically, the signal to noise using an endpoint analysis after the reads was at least three-fold. Alternatively, after Alamar blue reading, plates were rinsed with PBS, then used for luciferase assay using the Promega Dual-Glo Luciferase Assay System or the Promega EnduRen Live Cell Substrate assay.
Compound analysis was performed by quantification of the relative HCV replicon inhibition and the relative cytotoxicity values. To calculate cytoxicity values, the average Alamar Blue fluorescence signals from the control wells were set as 100% non-toxic. The individual signals in each of the compound test wells were then divided by the average control signal and multiplied by 100% to determine […]. To calculate the HCV replicon inhibition values, an average background value was obtained from the two wells containing the highest amount of HCV control inhibitor at the end of the assay period. These numbers were similar to those obtained from naïve Huh-7 cells. The background numbers were then subtracted from the average signal obtained from the control wells and this number was used as 100% activity. The individual signals in each of the compound test wells were then divided by the averaged control values after background subtraction and multiplied by 100% to determine percent activity. […] The two numbers generated for the compound plate, percent cytoxicity and percent activity, were used to determine compounds of interest for further analysis.

HCV NS5B = target: T1, HCV NS5B (Hepatitis C virus genotype 1b, UniProt Q9WMX2); assay: HCV NS5B RdRp enzyme assay (standard or modified); assay type: biochemical; conditions: HCV RdRp genotype 1b enzyme; not stated whether standard or modified assay
T1 construct: The cDNA encoding the NS5B protein of HCV, genotype 1b; made in house; host or cells: E. coli BL21(DE3)
T1 sequence (Q9WMX2 2420-2992): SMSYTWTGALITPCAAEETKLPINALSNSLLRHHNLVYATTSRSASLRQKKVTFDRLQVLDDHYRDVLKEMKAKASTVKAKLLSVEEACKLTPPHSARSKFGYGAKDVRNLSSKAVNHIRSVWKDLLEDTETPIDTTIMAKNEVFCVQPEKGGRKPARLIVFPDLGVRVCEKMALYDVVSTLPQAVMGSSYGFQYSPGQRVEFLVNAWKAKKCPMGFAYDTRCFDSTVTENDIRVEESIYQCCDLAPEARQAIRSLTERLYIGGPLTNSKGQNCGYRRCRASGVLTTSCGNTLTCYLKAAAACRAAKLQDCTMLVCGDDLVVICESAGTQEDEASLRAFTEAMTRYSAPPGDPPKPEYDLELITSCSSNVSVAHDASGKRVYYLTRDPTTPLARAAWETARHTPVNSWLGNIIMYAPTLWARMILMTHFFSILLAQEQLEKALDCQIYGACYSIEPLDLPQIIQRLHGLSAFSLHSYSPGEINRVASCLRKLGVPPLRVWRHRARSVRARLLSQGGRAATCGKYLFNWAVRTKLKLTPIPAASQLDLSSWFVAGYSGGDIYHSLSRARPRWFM
Experimental: HCV NS5B RdRp cloning, expression, and purification. The cDNA encoding the NS5B protein of HCV, genotype 1b, was cloned into the pET21a expression vector. The protein was expressed with an 18 amino acid C-terminal truncation to enhance the solubility. The E. coli competent cell line BL21(DE3) was used for expression of the protein. Cultures were grown at 37 °C for ~ 4 hours until the cultures reached an optical density of 2.0 at 600 nm. The cultures were cooled to 20 °C and induced with 1 mM IPTG. Fresh ampicillin was added to a final concentration of 50 µg/ml and the cells were grown overnight at 20 °C.
The lysis buffer consisted of 20 mM Tris-HCl, pH 7.4, 500 mM NaCl, 0.5% triton X-100, 1 mM DTT, 1 mM EDTA, 20% glycerol, 0.5 mg/ml lysozyme, 10 mM MgCl2, 15 ug/ml deoxyribonuclease I, and Complete TM protease inhibitor tablets (Roche). After addition of the lysis buffer, frozen cell pellets were resuspended using a tissue homogenizer. To reduce the viscosity of the sample, aliquots of the lysate were sonicated on ice using a microtip attached to a Branson sonicator. The sonicated lysate was centrifuged at 100,000 x g for Ihr at 4 °C and filtered through a 0.2 µm filter unit (Coming).
The protein was purified using two sequential chromatography steps: Heparin sepharose CL-6B and polyU sepharose 4B (Pharmacia). The chromatography buffers were identical to the lysis buffer but contained no lysozyme, deoxyribonuclease I, MgCl2 or protease inhibitor and the NaCl concentration of the buffer was adjusted according to the requirements for charging the protein onto the column. Each column was eluted with a NaCl gradient which varied in length from 5-50 column volumes depending on the column type. […] The enzyme was aliquoted and stored at -80 °C.
Standard HCV NSSB RdRp enzyme assay. HCV RdRp genotype 1b assays were run in a final volume of 60 µl in 96 well plates (Coming 3600). The assay buffer is composed of 20 mM Hepes, pH 7.5, 2.5 mM KCl, 2.5 mM MgCl2, 1 mM DTT, 1.6 U RNAse inhibitor (Promega N2515), 0.01 mg/ml BSA (Sigma B6917), and 2 % glycerol. All compounds were serially diluted (3-fold) in DMSO and diluted further in water such that the final concentration of DMSO in the assay was 2%. HCV RdRp genotype 1b enzyme was used at a final concentration of 28 nM. A polyA template was used at 6 nM, and a biotinylated oligo-dT12 primer was used at 180 nM final concentration. Template was obtained commercially (Amersham 27-4110). Biotinylated primer was prepared by Sigma Genosys. 3H-UTP was used at 0.6 µCi (0.29 µM total UTP). Reactions were initiated by the addition of enzyme, incubated at 30 °C for 60 min, and stopped by adding 25 µl of 50 mM EDTA containing SPA beads (4 µg/µl, Amersham RPNQ 0007). Plates were read on a Packard Top Count NXT after >1hr incubation at room temperature.
Modified HCV NS5B RdRp enzyme assay. A modified enzyme assay was performed essentially as described for the standard enzyme assay except for the following: The biotinylated oligo dT12 primer was precaptured on streptavidin-coated SPA beads by mixing primer and beads in assay buffer and incubating at room temperature for one hour. Unbound primer was removed after centrifugation. The primer-bound beads were resuspended in 20 mM Hepes buffer, pH 7.5 and used in the assay at final concentrations of 20 nM primer and 0.67 µg/µl beads. Order of addition in the assay: enzyme (1.75 nM) was added to diluted compound followed by the addition of a mixture of template (0.36 nM), 3H-UTP (0.6 µCi, 0.29 µM), and primer-bound beads, to initiate the reaction; concentrations given are final. Reactions were allowed to proceed for 4 hours at 30° C.
IC50 values for compounds were determined using seven different [I].

[1] = HCV replicon cells, 50% reduction in FRET or luciferase activity

| Compound | pEC50 (HCV replicon; Hepatitis C virus) | pIC50 (HCV NS5B) | pEC50 (HCV replicon; [1]) |
| --- | --- | --- | --- |
| CCN(CC)C(=O)N1CC2CCC(C1)N2C(=O)C12CC1c1cc(OC)ccc1-c1c(C3CCCCC3)c3ccc(C(=O)NS(=O)(=O)C4CC4)cc3n1C2 (stereo not shown) | 6.30 to 9.00 |  |  |
| CCN(CC)C(=O)N1CC2CCC(C1)N2C(=O)C12CC1c1cc(OC)ccc1-c1c(C3CCCCC3)c3ccc(C(=O)NS(=O)(=O)N4CCN(C)CC4)cc3n1C2 (stereo not shown) | 6.30 to 9.00 |  |  |
| COc1ccc2c(c1)[C@H]1C[C@@]1(C(=O)N1C3CCC1CN(C)C3)Cn1c-2c(C2CCCCC2)c2ccc(C(=O)NS(=O)(=O)C(C)C)cc21 | 6.30 to 9.00 |  |  |
| COc1ccc2c(c1)C1CC1(C(=O)N1C3CCC1CN(C)C3)Cn1c-2c(C2CCCCC2)c2ccc(C(=O)NS(=O)(=O)C(C)C)cc21 (stereo not shown) | 6.30 to 9.00 |  |  |
| COc1ccc2c(c1)C1CC1(C(=O)N1C3CCC1CN(C)C3)Cn1c-2c(C2CCCCC2)c2ccc(C(=O)NS(=O)(=O)C3CCCC3)cc21 (stereo not shown) | 6.30 to 9.00 | 6.30 to 9.00 |  |
| COc1ccc2c(c1)C1CC1(C(=O)N1C3CCC1CN(C)C3)Cn1c-2c(C2CCCCC2)c2ccc(C(=O)NS(=O)(=O)C3CCCCC3)cc21 (stereo not shown) | 6.30 to 9.00 |  |  |
| COc1ccc2c(c1)C1CC1(C(=O)N1C3CCC1CN(C)C3)Cn1c-2c(C2CCCCC2)c2ccc(C(=O)NS(=O)(=O)CC(C)C)cc21 (stereo not shown) | 6.30 to 9.00 | 6.30 to 9.00 |  |
| CCCS(=O)(=O)NC(=O)c1ccc2c(C3CCCCC3)c3n(c2c1)CC1(C(=O)N2C4CCC2CN(C)C4)CC1c1cc(OC)ccc1-3 (stereo not shown) | 6.30 to 9.00 | 6.30 to 9.00 |  |
| COc1ccc2c(c1)C1CC1(C(=O)N1C3CCC1CN(C)C3)Cn1c-2c(C2CCCCC2)c2ccc(C(=O)NS(=O)(=O)C(C)(C)C)cc21 (stereo not shown) | 6.30 to 9.00 | 6.30 to 9.00 |  |
| CCCCS(=O)(=O)NC(=O)c1ccc2c(C3CCCCC3)c3n(c2c1)CC1(C(=O)N2C4CCC2CN(C)C4)CC1c1cc(OC)ccc1-3 (stereo not shown) | 6.30 to 9.00 |  |  |
| CN1CC2CCC(C1)N2C(=O)C12CC1c1ccccc1-c1c(C3CCCCC3)c3ccc(C(=O)NS(=O)(=O)N(C)C)cc3n1C2 (stereo not shown) | 6.30 to 9.00 | 6.30 to 9.00 |  |
| CC(C)S(=O)(=O)NC(=O)c1ccc2c(C3CCCCC3)c3n(c2c1)CC1(C(=O)N2C4CCC2CN(C)C4)CC1c1ccccc1-3 (stereo not shown) | 6.30 to 9.00 | 6.30 to 9.00 |  |
| CCC(CC)S(=O)(=O)NC(=O)c1ccc2c(C3CCCCC3)c3n(c2c1)CC1(C(=O)N2C4CCC2CN(C)C4)CC1c1cc(OC)ccc1-3 (stereo not shown) | < 6.96 |  |  |
| COc1ccc2c(c1)[C@@H]1C[C@]1(C(=O)N1C3CCC1CN(C)C3)Cn1c-2c(C2CCCCC2)c2ccc(C(=O)NS(=O)(=O)CC(C)C)cc21 | 6.30 to 9.00 | 6.30 to 9.00 |  |
| COc1ccc2c(c1)C1CC1(C(=O)N1C3CCC1CN(C)C3)Cn1c-2c(C2CCCCC2)c2ccc(C(=O)NS(=O)(=O)CC(F)F)cc21 (stereo not shown) | 6.30 to 9.00 |  |  |
| COc1ccc2c(c1)C1CC1(C(=O)N1C3CCC1CN(C)C3)Cn1c-2c(C2CCCCC2)c2ccc(C(=O)NS(=O)(=O)C(F)(F)F)cc21 (stereo not shown) | 6.30 to 9.00 |  |  |
| COc1ccc2c(c1)C1CC1(C(=O)N1C3CCC1CN(C)C3)Cn1c-2c(C2CCCCC2)c2ccc(C(=O)NS(=O)(=O)CCC(F)(F)F)cc21 (stereo not shown) | 6.30 to 9.00 | 6.30 to 9.00 |  |
| COc1ccc2c(c1)C1CC1(C(=O)N1C3CCC1CN(C)C3)Cn1c-2c(C2CCCCC2)c2ccc(C(=O)NS(=O)(=O)CC(F)(F)F)cc21 (stereo not shown) | 6.30 to 9.00 | 6.30 to 9.00 |  |
| COc1ccc2c(c1)C1CC1(C(=O)N1C3CCC1CN(C)C3)Cn1c-2c(C2CCCCC2)c2ccc(C(=O)NS(=O)(=O)C3CCC3)cc21 (stereo not shown) [drawing 40] |  | 6.30 to 9.00 | 6.30 to 9.00 |
| CCC(C)S(=O)(=O)NC(=O)c1ccc2c(C3CCCCC3)c3n(c2c1)CC1(C(=O)N2C4CCC2CN(C)C4)CC1c1cc(OC)ccc1-3 (stereo not shown) [drawing 45] | 6.30 to 9.00 | 6.30 to 9.00 |  |
| COc1ccc2c(c1)C1CC1(C(=O)N1C3CCC1CN(C)C3)Cn1c-2c(C2CCCCC2)c2ccc(C(=O)NS(=O)(=O)C3CCC3)cc21 (stereo not shown) [drawing 51] | 6.30 to 9.00 |  |  |
| CCC(C)S(=O)(=O)NC(=O)c1ccc2c(C3CCCCC3)c3n(c2c1)CC1(C(=O)N2C4CCC2CN(C)C4)CC1c1cc(OC)ccc1-3 (stereo not shown) [drawing 52] |  | 6.30 to 9.00 | 6.30 to 9.00 |
